Source: patent US20020137929A1, “1 - (3-heterocyclylphenyl) isothiourea, -isourea, -guanidine and -amidine herbicidal agents” (Intellectual Property Department, BASF Aktiengesellschaft, priority 1998, published 2002)

Experiments:
SETVI (Foxtail, Green) [1] = assay: Postemergence herbicidal evaluation; assay type: in vivo, Setaria viridis; settings: postemergence
In short: (§1)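 Visual 0-9 injury score (stand, vigor, malformation, size, chlorosis, appearance vs untreated) taken four to five weeks post-spray, averaged across repeat tests. Test plants about two weeks old; foliar spray of acetone/water (1:1) with 0.5% surfactant delivering ~0.0156-0.500 kg active/ha.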

ORYSAT (Rice, Tebonnet) = assay: Postemergence herbicidal evaluation; assay type: in vivo, Oryza sativa, (L.) Tebonnet; settings: postemergence
In short: as §1

ZEAMX (Corn, Field) [2] = assay: Postemergence herbicidal evaluation; assay type: in vivo, Zea mays; settings: postemergence
In short: as §1

ECHCG (Barnyardgrass) = assay: Preemergence herbicidal evaluation; assay type: in vivo, Echinochloa crus-galli; settings: preemergence, rated 4-5 weeks after treatment, 0-9 scale
In short: (§2)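 Scores use a 0–9 visual scale covering stand, vigor, malformation, size and chlorosis relative to controls, rated four to five weeks after treatment. Before emergence, soil-planted seeds were sprayed with compound in aqueous acetone at roughly 0.0156–0.500 kg/ha and held in the greenhouse.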

SETVI (Foxtail, Green) [3] = assay: Preemergence herbicidal evaluation; assay type: in vivo, Setaria viridis; settings: preemergence, rated 4-5 weeks after treatment, 0-9 scale
In short: as §2

[4] = test system: TRZAWR (Wheat, Winter, cv Riband); assay: Preemergence herbicidal evaluation; assay type: in vivo, Triticum aestivum; settings: preemergence, rated 4-5 weeks after treatment, 0-9 scale
In short: as §2

ZEAMX (Corn, Field) [5] = assay: Preemergence herbicidal evaluation; assay type: in vivo, Zea mays; settings: preemergence, rated 4-5 weeks after treatment, 0-9 scale
In short: as §2

[6] = test system: ECHORC (Watergrass (Calif.)); assay: Preemergence weed control under flooded paddy conditions; assay type: in vivo, Echinochloa oryzoides; settings: rated 3-4 weeks after treatment
In short: (§3)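 Ratings on a 0-9 visual scale cover stand, vigor, malformation, size, chlorosis and overall appearance relative to a control, taken three to four weeks post-treatment. Application was into flood water over freshly sown silt loam at roughly 0.0313 to 0.500 kg/ha.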

CYPIR (Rice Flatsedge) [7] = assay: as above; assay type: in vivo, Cyperus iria; settings: rated 3-4 weeks after treatment
In short: as §3

CYPSE (Flatsedge) [8] = assay: as above; assay type: in vivo, Cyperus serotinus; settings: rated 3-4 weeks after treatment
In short: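 Values are visual 0-9 scores against a control for a preemergence application into paddy flood water at about 0.0313 to 0.500 kg/ha. Greenhouse duration was three to four weeks.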

[9] = test system: ECHORC (Watergrass (Calif.)); assay: Postemergence weed control under flooded paddy conditions; assay type: in vivo, Echinochloa oryzoides; settings: postemergence weeds, rated 3 to 4 weeks after treatment
In short: (§4)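 Flood-water application, about 0.0313–0.500 kg/ha a.i. in aqueous/acetone 50/50 v/v; water depth 1.5–3 cm throughout. Weeds 3–5 cm, rice 1.5–2.5 leaf. Greenhouse; 0–9 visual rating vs control at 3–4 wk.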

CYPIR (Rice Flatsedge) [10] = assay: as above; assay type: in vivo, Cyperus iria; settings: postemergence weeds, rated 3 to 4 weeks after treatment
In short: as §4

CYPSE (Flatsedge) [11] = assay: as above; assay type: in vivo, Cyperus serotinus; settings: postemergence weeds, rated 3 to 4 weeks after treatment
In short: as §4

[12] = test system: SAGPY (Arrowhead (Pygmaea)); assay: as above; assay type: in vivo, Sagittaria pygmaea; settings: postemergence weeds, rated 3 to 4 weeks after treatment
In short: as §4

C=CCN1C(=O)C(CC(=O)NC)SC1=Nc1cc(-n2c(=O)cc(C(F)(F)F)n(C)c2=O)c(F)cc1Cl (stereo not shown) [Compound 84, 3-Allyl-2-{{2-chloro-5-[3,6-dihydro-3-methyl-2,6-dioxo-4-(trifluoromethyl)-1(2H)-pyrimidinyl]-4-fluorophenyl}imino}-N-methyl-4-oxo-5-thiazolidineacetamide]
1.5: ORYSAT herbicidal rating (ORYSAT (Rice, Tebonnet); rate 0.0625 kg/ha)
3.0: ORYSAT herbicidal rating (ORYSAT (Rice, Tebonnet); rate 0.1250 kg/ha) | SETVI rating (SETVI (Foxtail, Green) [3]; 0.1250 kg/ha) | CYPIR herbicidal effect rating (CYPIR (Rice Flatsedge) [7]; 0.0313 kg/ha) | CYPSE herbicidal effect rating (CYPSE (Flatsedge) [8]; 0.0625 kg/ha) | Herbicidal rating CYPIR (CYPIR (Rice Flatsedge) [10]; Rate 0.0313 kg/ha) | Herbicidal rating CYPSE (CYPSE (Flatsedge) [11]; Rate 0.0625 kg/ha)
5.0: ZEAMX herbicidal rating (ZEAMX (Corn, Field) [2]; rate 0.1250 kg/ha) | ZEAMX rating (ZEAMX (Corn, Field) [5]; 0.1250 kg/ha) | ECHORC herbicidal effect rating ([6]; 0.0625 kg/ha) | Herbicidal rating ECHORC ([9]; Rate 0.0625 kg/ha)
0.5: ORYSAT herbicidal rating (ORYSAT (Rice, Tebonnet); rate 0.0156 kg/ha)
7.0: ECHORC herbicidal effect rating ([6]; 0.1250 kg/ha) | CYPIR herbicidal effect rating (CYPIR (Rice Flatsedge) [7]; 0.0625 kg/ha) | Herbicidal rating ECHORC ([9]; Rate 0.1250 kg/ha) | Herbicidal rating CYPIR (CYPIR (Rice Flatsedge) [10]; Rate 0.0625 kg/ha) | Herbicidal rating SAGPY ([12]; Rate 0.1250 kg/ha)
8.0: ZEAMX rating (ZEAMX (Corn, Field) [5]; 0.2500 kg/ha)
1.0: ORYSAT herbicidal rating (ORYSAT (Rice, Tebonnet); rate 0.0313 kg/ha)
4.5: ZEAMX herbicidal rating (ZEAMX (Corn, Field) [2]; rate 0.0625 kg/ha)
2.0: SETVI herbicidal rating (SETVI (Foxtail, Green) [1]; rate 0.1250 kg/ha) | ECHCG rating (ECHCG (Barnyardgrass); 0.2500 kg/ha) | Herbicidal rating SAGPY ([12]; Rate 0.0313 kg/ha)
9.0: ECHCG rating (ECHCG (Barnyardgrass); 0.5000 kg/ha) | SETVI rating (SETVI (Foxtail, Green) [3]; 0.2500 kg/ha) | SETVI rating (SETVI (Foxtail, Green) [3]; 0.5000 kg/ha) | TRZAWR rating ([4]; 0.5000 kg/ha) | ZEAMX rating (ZEAMX (Corn, Field) [5]; 0.5000 kg/ha) | ECHORC herbicidal effect rating ([6]; 0.2500 kg/ha) | CYPIR herbicidal effect rating (CYPIR (Rice Flatsedge) [7]; 0.1250 kg/ha) | CYPIR herbicidal effect rating (CYPIR (Rice Flatsedge) [7]; 0.2500 kg/ha) | CYPSE herbicidal effect rating (CYPSE (Flatsedge) [8]; 0.1250 kg/ha) | CYPSE herbicidal effect rating (CYPSE (Flatsedge) [8]; 0.2500 kg/ha) | Herbicidal rating ECHORC ([9]; Rate 0.2500 kg/ha) | Herbicidal rating CYPIR (CYPIR (Rice Flatsedge) [10]; Rate 0.1250 kg/ha) | Herbicidal rating CYPIR (CYPIR (Rice Flatsedge) [10]; Rate 0.2500 kg/ha) | Herbicidal rating CYPSE (CYPSE (Flatsedge) [11]; Rate 0.1250 kg/ha) | Herbicidal rating CYPSE (CYPSE (Flatsedge) [11]; Rate 0.2500 kg/ha) | Herbicidal rating SAGPY ([12]; Rate 0.2500 kg/ha)
4.0: ZEAMX herbicidal rating (ZEAMX (Corn, Field) [2]; rate 0.0156 kg/ha) | ZEAMX herbicidal rating (ZEAMX (Corn, Field) [2]; rate 0.0313 kg/ha) | TRZAWR rating ([4]; 0.1250 kg/ha) | ECHORC herbicidal effect rating ([6]; 0.0313 kg/ha) | Herbicidal rating ECHORC ([9]; Rate 0.0313 kg/ha)
6.0: TRZAWR rating ([4]; 0.2500 kg/ha) | Herbicidal rating SAGPY ([12]; Rate 0.0625 kg/ha)
0.0: SETVI herbicidal rating (SETVI (Foxtail, Green) [1]; rate 0.0156 kg/ha) | SETVI herbicidal rating (SETVI (Foxtail, Green) [1]; rate 0.0313 kg/ha) | SETVI herbicidal rating (SETVI (Foxtail, Green) [1]; rate 0.0625 kg/ha) | ECHCG rating (ECHCG (Barnyardgrass); 0.0156 kg/ha) | ECHCG rating (ECHCG (Barnyardgrass); 0.0313 kg/ha) | ECHCG rating (ECHCG (Barnyardgrass); 0.0625 kg/ha) | ECHCG rating (ECHCG (Barnyardgrass); 0.1250 kg/ha) | SETVI rating (SETVI (Foxtail, Green) [3]; 0.0156 kg/ha) | SETVI rating (SETVI (Foxtail, Green) [3]; 0.0313 kg/ha) | SETVI rating (SETVI (Foxtail, Green) [3]; 0.0625 kg/ha) | TRZAWR rating ([4]; 0.0156 kg/ha) | TRZAWR rating ([4]; 0.0313 kg/ha) | TRZAWR rating ([4]; 0.0625 kg/ha) | ZEAMX rating (ZEAMX (Corn, Field) [5]; 0.0156 kg/ha) | ZEAMX rating (ZEAMX (Corn, Field) [5]; 0.0313 kg/ha) | ZEAMX rating (ZEAMX (Corn, Field) [5]; 0.0625 kg/ha) | CYPSE herbicidal effect rating (CYPSE (Flatsedge) [8]; 0.0313 kg/ha) | Herbicidal rating CYPSE (CYPSE (Flatsedge) [11]; Rate 0.0313 kg/ha)
